How the values were obtained:
DYRK2 [1] = target: T1, DYRK2 (Homo sapiens, UniProt Q92630); experiment: Coupled kinase assay, DYRK2; type: biochemical
T1 sequence (Q92630 146-540): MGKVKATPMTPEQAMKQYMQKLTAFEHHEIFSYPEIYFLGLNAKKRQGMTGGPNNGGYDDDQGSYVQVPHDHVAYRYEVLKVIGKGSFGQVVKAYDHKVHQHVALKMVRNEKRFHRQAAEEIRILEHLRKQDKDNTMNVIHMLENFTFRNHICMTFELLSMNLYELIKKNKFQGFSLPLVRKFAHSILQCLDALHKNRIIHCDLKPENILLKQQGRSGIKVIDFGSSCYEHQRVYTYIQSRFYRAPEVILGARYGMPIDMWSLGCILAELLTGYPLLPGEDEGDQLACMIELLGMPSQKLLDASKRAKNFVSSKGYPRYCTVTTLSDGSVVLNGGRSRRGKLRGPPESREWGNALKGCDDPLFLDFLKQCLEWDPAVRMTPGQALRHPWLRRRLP

MDA-MB-231 = experiment: Cytotoxicity by MTT assay, MDA-MB-231; type: cell-based; conditions: for IC50: Homo sapiens, MDA-MB-231, read-out: IC50 dose; for IC10 dose: MDA-MB-231, value used as dose in wound-healing assay
MDA-MB-231 cells [2] = experiment: Stability of the compound in cells by live-cell fluorescence imaging; type: in vitro ADME; conditions: MDA-MB-231, 10 μM
Src [3] = target: T2, Src (Homo sapiens, UniProt P12931); experiment: biochemical
Target sequence in this assay (P12931 254-535 limits assumed): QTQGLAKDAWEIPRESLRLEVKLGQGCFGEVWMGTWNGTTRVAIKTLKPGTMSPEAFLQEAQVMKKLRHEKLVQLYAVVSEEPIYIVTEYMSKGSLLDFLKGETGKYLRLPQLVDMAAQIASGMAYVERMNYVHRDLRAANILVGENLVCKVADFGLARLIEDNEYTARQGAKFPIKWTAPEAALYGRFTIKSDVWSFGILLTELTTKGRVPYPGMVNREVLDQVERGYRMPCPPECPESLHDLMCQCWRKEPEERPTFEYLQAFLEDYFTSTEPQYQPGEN

Hck [4] = target: T3, Hck (Homo sapiens, UniProt P08631); experiment: biochemical; type: biochemical
Target sequence in this assay (P08631 262-515 limits assumed): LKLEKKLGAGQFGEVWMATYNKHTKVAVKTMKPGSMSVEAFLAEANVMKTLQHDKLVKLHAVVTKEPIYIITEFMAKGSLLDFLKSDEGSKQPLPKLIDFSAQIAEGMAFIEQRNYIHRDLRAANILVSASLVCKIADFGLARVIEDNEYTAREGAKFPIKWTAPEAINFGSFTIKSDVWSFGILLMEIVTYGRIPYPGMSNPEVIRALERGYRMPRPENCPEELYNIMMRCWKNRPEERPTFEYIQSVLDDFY

pY-Hck = pY-Hck (Homo sapiens, UniProt P08631); experiment: Coupled kinase assay, phosphorylated Hck; type: biochemical; conditions: 5 μM of 4
Sequence of pY-Hck (P08631 166-445): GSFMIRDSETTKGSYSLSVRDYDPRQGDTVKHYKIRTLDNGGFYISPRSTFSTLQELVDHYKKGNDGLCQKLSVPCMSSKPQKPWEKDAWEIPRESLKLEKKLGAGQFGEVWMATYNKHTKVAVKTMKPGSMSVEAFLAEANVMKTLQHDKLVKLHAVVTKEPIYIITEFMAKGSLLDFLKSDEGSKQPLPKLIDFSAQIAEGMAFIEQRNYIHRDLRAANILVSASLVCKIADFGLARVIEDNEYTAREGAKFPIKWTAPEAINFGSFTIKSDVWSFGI

pY-Src = pY-Src (Homo sapiens, UniProt P12931); experiment: Coupled kinase assay, phosphorylated Src; type: biochemical; conditions: 5 μM of 4
Sequence of pY-Src (P12931 254-535): as the sequence (P12931 254-535 limits assumed) above

Abl Y253F [5] = target: T4, Abl Y253F (Homo sapiens, UniProt P00519, Y253F); experiment: Kinase activity of Abl Y253F mutant; type: biochemical; conditions: 10 μM
T4 sequence (P00519 229-512 Y253F limits assumed): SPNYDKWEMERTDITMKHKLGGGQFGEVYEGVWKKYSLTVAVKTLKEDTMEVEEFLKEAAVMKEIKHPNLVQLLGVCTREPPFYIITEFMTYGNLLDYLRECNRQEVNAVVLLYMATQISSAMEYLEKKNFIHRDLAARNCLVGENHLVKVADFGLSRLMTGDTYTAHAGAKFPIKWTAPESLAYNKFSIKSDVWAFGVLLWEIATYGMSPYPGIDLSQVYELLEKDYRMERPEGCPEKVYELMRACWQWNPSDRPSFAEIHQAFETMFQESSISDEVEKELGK

Hck [6] = target: T3, Hck; experiment: biochemical; type: binding
Target sequence in this assay (P08631 247-526 limits assumed): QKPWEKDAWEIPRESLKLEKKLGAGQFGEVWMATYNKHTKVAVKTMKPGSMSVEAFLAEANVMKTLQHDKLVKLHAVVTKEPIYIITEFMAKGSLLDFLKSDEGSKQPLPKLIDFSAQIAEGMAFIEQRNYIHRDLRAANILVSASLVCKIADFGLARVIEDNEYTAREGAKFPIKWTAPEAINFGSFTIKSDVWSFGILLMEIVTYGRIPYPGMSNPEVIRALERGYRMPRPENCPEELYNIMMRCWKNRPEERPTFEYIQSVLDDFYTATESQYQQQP

Abl Y253F [7] = target: T4, Abl Y253F; experiment: Stop-flow tryptophan fluorescence binding kinetics, Abl Y253F
DYRK2 [8] = target: T1, DYRK2; experiment: Stop-flow tryptophan fluorescence binding kinetics, DYRK2; conditions: tryptophan fluorescence transient
Hck [9] = target: T3, Hck; type: biochemical
Target sequence in this assay (P08631 247-526 limits assumed): as above

Src [10] = target: T2, Src; type: biochemical
Target sequence in this assay (P12931 254-535 limits assumed): as the sequence (P12931 254-535 limits assumed) above

HEK 293T = experiment: Cytotoxicity by MTT assay, HEK 293T; type: cell-based; conditions: Homo sapiens, 48 h, read-out: IC50 value HEK 293T
Solution stability = type: physicochemical
[11] = Aggregation by dynamic light scattering; type: physicochemical; conditions: 15 μM in aqueous assay buffer
Src kinase domain = Src kinase domain (Homo sapiens, UniProt P12931)
Sequence of Src kinase domain (P12931 254-535 limits assumed): as above

MDA-MB-231 cells [12] = experiment: Plasma membrane integrity, FM4-64-FX live-cell imaging; type: cell-based; conditions: 15 μM, 6 h
MDA-MB-231 cells [13] = experiment: Wound-healing assay; type: cell-based; conditions: IC10 and IC50 dose
ERK1/2 = ERK1/2 nuclear translocation, immunofluorescence; type: cell-based; conditions: MDA-MB-231, 5 μM of 4
[14] = system: Bcl-2, Cytochrome C, caspase 3, Bid; experiment: Western blot analysis of apoptosis markers; type: cell-based; conditions: MDA-MB-231, 10 and 20 μM, 12 h
RAW 264.7 cells = experiment: Intracellular calcium detection; type: cell-based, murine; conditions: RAW 264.7, 5 μM of 4
STAT3 = STAT3 nuclear translocation, immunofluorescence; type: cell-based, murine; conditions: RAW 264.7, 5 μM of 4
Src, ERK1/2, and STAT3 = experiment: Phosphorylation of Src, ERK1/2 and STAT3 in macrophages, immunoprecipitation; type: cell-based, murine; conditions: RAW 264.7, LPS activated
Src [15] = target: T2, Src; conditions: MDA-MB-231
Target sequence in this assay (P12931 whole entry): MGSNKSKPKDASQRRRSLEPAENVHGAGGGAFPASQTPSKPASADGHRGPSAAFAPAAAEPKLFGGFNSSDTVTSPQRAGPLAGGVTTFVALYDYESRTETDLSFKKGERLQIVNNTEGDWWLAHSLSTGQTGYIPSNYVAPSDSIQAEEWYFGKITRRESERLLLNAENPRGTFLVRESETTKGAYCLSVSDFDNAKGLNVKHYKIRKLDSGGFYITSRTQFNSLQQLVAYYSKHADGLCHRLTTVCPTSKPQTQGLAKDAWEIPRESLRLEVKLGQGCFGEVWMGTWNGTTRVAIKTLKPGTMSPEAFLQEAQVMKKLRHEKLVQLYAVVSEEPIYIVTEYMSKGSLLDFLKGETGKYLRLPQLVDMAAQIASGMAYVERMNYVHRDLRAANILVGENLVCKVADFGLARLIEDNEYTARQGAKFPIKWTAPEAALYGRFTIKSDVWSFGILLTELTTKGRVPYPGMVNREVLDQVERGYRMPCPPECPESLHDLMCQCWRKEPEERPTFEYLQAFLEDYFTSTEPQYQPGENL

pUC19 plasmid DNA = experiment: DNA cross-linking assay; conditions: 0.1–20 μM, 37 °C, 2 h

SMILES: COc1cc(/C=C/C(=O)CC(=O)/C=C/c2ccc(O)c(OC)c2)ccc1O [Compound 1, Curcumin, reference compound]
- Ki (DYRK2 [1]): 6 nM
- IC50 (MDA-MB-231): 13 µM
- IC10 dose (MDA-MB-231): 600 nM
- Time to degradation inside the cell (MDA-MB-231 cells [2]; fluorescence): ≤ 1 h

SMILES: COc1cc(/C=C/C(=O)C(=Cc2ccc(N(CCCl)CCCl)cc2)C(=O)/C=C/c2ccc(O)c(OC)c2)ccc1O [Compound 4, (1E,6E)-4-(4-(bis(2-chloroethyl)amino)benzylidene)-1,7-bis(4-hydroxy-3-methoxyphenyl)hepta-1,6-diene-3,5-dione]
- Ki (Src [3]): 460 ± 110 nM
- Ki (Hck [4]): 70 ± 11 nM
- Mode of inhibition (Hck [4]; Km for ATP changes, Vmax unchanged): competitive inhibitor for the ATP-binding site
- Inhibition of phosphorylated Hck (pY-Hck) (pY-Hck): does not inhibit
- Inhibition of phosphorylated Src (pY-Src) (pY-Src): does not inhibit
- Inhibition of Abl Y253F kinase activity (Abl Y253F [5]): better inhibition compared with imatinib
- Kd (Hck [6]): 50 ± 10 nM
- Kd (Abl Y253F [7]): 1300 ± 300 nM
- Interaction with DYRK2 (DYRK2 [8]): did not interact
- Reduction of the rate of autophosphorylation (Hck [9]): 500 fold
- Reduction of the rate of autophosphorylation (Src [10]): 2.5 fold
- IC50 (MDA-MB-231): 1.3 µM
- IC10 dose (MDA-MB-231): 100 nM
- IC50 (HEK 293T): 24.9 ± 1 µM
- Time for which fluorescence was observed inside the cell (MDA-MB-231 cells [2]; observed for 14 h): 14 h
- Time stable in solution by 1H NMR (Solution stability; 8:2 v/v of 1x PBS and DMSO-d6, 24 h observed period): at least 24 h
- Stability in the kinase assay buffer (Solution stability; kinase assay buffer pH 8.0, 5% DMSO, 1 h): most stable
- Aggregation in solution (oligomeric state, DLS) [11]: did not aggregate
- Covalent modification of cysteine residues of Src kinase (Src kinase domain): not covalently modifying
- Effect on plasma membrane integrity (MDA-MB-231 cells [12]): not affecting the membrane integrity
- Effect on wound-healing rates (MDA-MB-231 cells [13]): significantly impaired the wound-healing rates
- Cytosolic fraction of ERK1/2 after TNF-α activation (ERK1/2): significantly increased
- BH3 interacting domain death agonist expression level [14]: does not affect
- Mitochondria-mediated apoptotic pathway (Bcl-2, cytochrome C, Caspase3) [14]: activates the mitochondria-mediated apoptotic pathway
- Ca^2+ release after LPS activation (RAW 264.7 cells): significant reduction
- Cytosolic fraction of STAT3 after LPS activation (STAT3): increased cytosolic fraction of STAT3
- Phosphorylation of Src, ERK1/2, and STAT3 (Src, ERK1/2, and STAT3): concentration-dependent reduced phosphorylation
- Autophosphorylation of Src in the cell (Src [15]): inhibits the autophosphorylation of Src
- DNA cross-linking (pUC19 plasmid DNA): do not cross-link DNA

Reference: publication PMC7946438 (The Journal of Biological Chemistry, 2021)
